“Also recorded” adds a separate entry of the source. Marks after values point to notes of the source that are not given here.
Key:
[1] = Open field test, locomotor activity; type: in vivo; conditions: for locomotor effect compared with R-phenotropil: respective doses, S-enantiomer at 50 mg/kg; for time for which increase in locomotor activity was retained: single i.p., 50 mg/kg stated for R-phenotropil
Procedure: Locomotor activity was tested in an open field test 30, 60, 120, 180 and 240 min after a single i.p. injection of the racemic phenotropil and R- and S-enantiomers (FIG. 1A,B,C,D). […] R-phenotropil in 5, 10 and 50 mg/kg doses induced a statistically significant increase in locomotor activity in comparison with the control animals [F(3.31)=10.37, p<0.0001] (FIG. 1A,C). Furthermore, R-phenotropil in the dose of 50 mg/kg retained a statistically significant increase in locomotor activity for up to 240 min [F(9.80)=24.03, p<0.0001] (FIG. 1B,D).

[2] = Forced swimming test (duration of immobility), antidepressive effect; type: in vivo; conditions: for doses significantly reducing duration of immobility vs control group: 30 min after i.p. injection, doses tested 10, 50 and 100 mg/kg
Procedure: The antidepressive effect of the racemic, R- and S-phenotropil was tested in a forced swimming test (by determining the duration of immobility) 30 min after the i.p. injection of the compounds in doses 10, 50 and 100 mg/kg (FIG. 2).

mice = test: Passive avoidance test, latent period of the remembering process; type: in vivo; conditions: for effect on latent period / passive avoidance: dose not given; for increase of latent period in comparison with control group: mice
Procedure: The influence of racemic, R- and S-phenotropil on memory processes was determined by means of a passive avoidance test (PCR), by registering the latent period of the remembering process.

[3] = Cylinder test, muscle strength and coordination; type: in vivo; conditions: for effect on muscle strength and coordination: cylinder, traction and rotating rod tests, up to 500 mg/kg
Procedure: (§1) None of the compounds affected rectal temperature at the dose of 500 mg/kg (Table 1).
(§2) The compounds were administered in i.p. doses of 50, 100, 250 and 500 mg/kg. The effect of the substances in different tests was evaluated 30, 60, 120 and 180 min after the administration of the compounds. ED50 value was calculated by, performing probit analysis.

[4] = Traction test, muscle strength and coordination; type: in vivo; conditions: i.p. 50, 100, 250 and 500 mg/kg, 30-180 min, probit analysis
Procedure: as §1, §2

[5] = Rotating rod test, muscle strength and coordination; type: in vivo; conditions: i.p. 50, 100, 250 and 500 mg/kg, 30-180 min, probit analysis
Procedure: as §1, §2

Rectal temperature = type: in vivo; conditions: i.p. 50, 100, 250 and 500 mg/kg, 30-180 min, probit analysis
Procedure: as §1, §2

[6] = nootropic activity, literature (Malykh, Sadaie 2010); cited from earlier work
Zucker fa/fa rats = test: Body mass gain in Zucker fa/fa rats, 12 weeks oral administration; type: in vivo
Procedure: The influence of an S-phenotropil containing composition on the body mass. Zucker fa/fa (HsdOla:Zucker-Lepfre; Harlan Laboratories) and Zucker lean line rats (HsdOla:Zucker-Lean; Harlan Laboratories) with the body mass of 100-170 g were used during the experiment. At the beginning of the experiment the animals were 6 weeks old. Standard conditions for keeping the experimental animals were ensured (air temperature 21° C.-23° C., relative air humidity 65%±10%, 12 hour light/darkness cycle). Standardised feed (R70) by the company LABFOR (Lactamin AB, Sweden) was used to feed the animals, drinking water was accessible without limitations.
S-phenotropil containing pharmaceutical composition in water or water was orally administered to the mature male rats included into the experimental group once daily in the morning: To the Zucker lean group (n=10), water p.o., to the Zucker fa/fa control group (n=10), water p.o. or to the Zucker fa/fa group S-phenotropil containing composition 50 mg/kg (n=5), p.o. The resulting values were expressed as mean values±standard error of the mean (S.E.M.) T-test was used to check the validity of the results. The results were considered valid, if the p value was less than 0.05. […] Since the increase in mass for ZuckerLean control rats is primarily connected with normal increase in muscle mass, as the animals grow, the effect of S-phenotropil in terms of the increase of ZuckerFF fat mass is 39% (FIG. 6).

[7] = i.p. 50, 100, 250 and 500 mg/kg, 30-180 min, probit analysis
[8] = Zucker fa/fa rats, 50 mg/kg p.o. once daily, mean ± S.E.M.

SMILES	locomotor effect compared with R-phenotropil [1]	time for which increase in locomotor activity was retained [1]	doses significantly reducing duration of immobility vs control group [2]	effect on latent period in comparison with control group (mice; 1 mg/kg)	effect on muscle strength and coordination [3]	ED50 Cylinder [3, 7]	ED50 Traction [4]	ED50 Rotating rod [5]	ED50 Rectal temperature (Rectal temperature)	effect on latent period / passive avoidance (mice)	other results
NC(=O)CN1CC(c2ccccc2)CC1=O (racemic) [Phenotropil racemate]	less active than R-phenotropil	up to 180 min	100 mg/kg	significantly increased the latent period	did not affect muscle strength and coordination	>500 mg/kg	>500 mg/kg	>500 mg/kg	>500 mg/kg		activity relative to piracetam [6]: 30-60 times
NC(=O)CN1C[C@H](c2ccccc2)CC1=O [S-phenotropil, (S)-2-(2-oxo-4-phenylpyrrolidin-1-yl)acetamide]	statistically significantly weaker than the effect of R-enantiomer		100 mg/kg		did not affect muscle strength and coordination					does not have any effect in a passive avoidance test; also recorded: did not affect the latent period	dose for statistically significant effect on locomotor activity relative to R-phenotropil [1]: 10 times; doses inducing statistically significant increase in locomotor activity vs control animals ([1]; single i.p. injection): 50 mg/kg; ED50 ([3]; in vivo, intraperitoneal, i.p. 50, 100, 250 and 500 mg/kg, 30-180 min, probit analysis): > 500 mg/kg; ED50 ([4]; in vivo, intraperitoneal): > 500 mg/kg; ED50 ([5]; in vivo, intraperitoneal): > 500 mg/kg; ED50 (Rectal temperature; in vivo, intraperitoneal): > 500 mg/kg; effect on weight increase (Zucker fa/fa rats; Zucker FF rats, 12 weeks, 50 mg/kg p.o.): statistically significantly reduced the weight increase; Increase in fat mass in Week 12 (Zucker fa/fa rats; [8]): 106 ± 7 g; Weight increase in Week 12 (Zucker fa/fa rats; [8]): 2645 ± 30*^, # AUC units; reduction of total weight gain (Zucker fa/fa rats; Zucker fa/fa rats, 50 mg/kg p.o., 12 weeks): 22%; effect in terms of the increase of ZuckerFF fat mass (Zucker fa/fa rats; Zucker fa/fa rats, 50 mg/kg p.o., 12 weeks, relative to Zucker lean growth): 39%
NC(=O)CN1C[C@@H](c2ccccc2)CC1=O [R-phenotropil]		up to 240 min		significantly increased the latent period		258 ± 25 mg/kg	250 ± 40 mg/kg	320 ± 60 mg/kg	>500 mg/kg	considerably affects memory	reduction of duration of immobility in comparison with control group ([2]; 100 mg/kg i.p., 30 min): 8 times; antidepressive effect compared with the other tested compounds / control ([2]; i.p., 30 min after injection): significantly higher in comparison with racemic and S-phenotropil; increase of latent period in comparison with control group (mice; 1 mg/kg): 195%; increase of latent period in comparison with control group (mice; 10 mg/kg): 185%

From patent publication US20160250185A1, “PHARMACEUTICAL COMPOSITION FOR C[…] MASS GAIN […]-PHENOTROPIL” (LATVIAN INSTITUTE OF ORGANIC SYNTHESIS, priority 2013, published 2016)
